In patent publication US8841449B2, “Compounds useful as inhibitors of ATR kinase” (Vertex Pharmaceuticals Incorporated, priority 2011, dated 2014):

What was measured:
[1] = Pharmacokinetics (clearance and volume of distribution); type: in vivo; conditions: for clearance / Vd: in vivo, noncompartmental, intravenous (IV) dosing, species not given; for Vd: read-out: Vss (steady state volume of distribution)
Source text: Noncompartmental pharmacokinetic parameters can be analyzed using Watson Bioanalytical LIMS (Version 7.4; Thermo Fisher Scientific) from either the blood or plasma samples. The following parameters can be estimated following intravenous (IV) dosing: terminal elimination half-life (T1/2=ln(2)/λz, where λz is the first order rate constant associated with the terminal (log-linear) portion of the curve); the area under the curve (AUClast=area under the curve from the time of dosing to the last measurable concentration); the area under the curve extrapolated to infinity (AUC0-∞=AUClast+Clast/λz). The clearance (Cl; Cl=DoseIV/AUC0-∞); the area under the first moment curve (AUMClast=area under the concentration times time versus time curve from the time of dosing to the last measurable concentration); the area under the first moment curve extrapolated to infinity (AUMC0-∞=AUMClast+Clast×t/λz+Clast/λz^2); the mean residence time (MRT=AUMC0-∞/AUC0-∞); and the steady state volume of distribution (Vdss=MRT×Cl).
Clearance and volume of distribution can also be obtained using methods known to one of skill in the art (see e.g., Handbook of Essential Pharmacokinetics, Pharmacodynamics and Drug Metabolism for Industrial Scientists, Younggil Kwon, pp 18-28 (Noncompartmental Approach)).

[2] = target: T1, ATR kinase (full-length ATR) (Homo sapiens, UniProt Q13535); assay: ATR Inhibition Assay (radioactive-phosphate incorporation); type: biochemical; conditions: Ki(app); 10 μM ATP, 800 μM target peptide, 5 nM full-length ATR, 25° C.
T1 construct: Assays were carried out at 25° C. in the presence of 5 nM full-length ATR
T1 sequence (Q13535 whole entry): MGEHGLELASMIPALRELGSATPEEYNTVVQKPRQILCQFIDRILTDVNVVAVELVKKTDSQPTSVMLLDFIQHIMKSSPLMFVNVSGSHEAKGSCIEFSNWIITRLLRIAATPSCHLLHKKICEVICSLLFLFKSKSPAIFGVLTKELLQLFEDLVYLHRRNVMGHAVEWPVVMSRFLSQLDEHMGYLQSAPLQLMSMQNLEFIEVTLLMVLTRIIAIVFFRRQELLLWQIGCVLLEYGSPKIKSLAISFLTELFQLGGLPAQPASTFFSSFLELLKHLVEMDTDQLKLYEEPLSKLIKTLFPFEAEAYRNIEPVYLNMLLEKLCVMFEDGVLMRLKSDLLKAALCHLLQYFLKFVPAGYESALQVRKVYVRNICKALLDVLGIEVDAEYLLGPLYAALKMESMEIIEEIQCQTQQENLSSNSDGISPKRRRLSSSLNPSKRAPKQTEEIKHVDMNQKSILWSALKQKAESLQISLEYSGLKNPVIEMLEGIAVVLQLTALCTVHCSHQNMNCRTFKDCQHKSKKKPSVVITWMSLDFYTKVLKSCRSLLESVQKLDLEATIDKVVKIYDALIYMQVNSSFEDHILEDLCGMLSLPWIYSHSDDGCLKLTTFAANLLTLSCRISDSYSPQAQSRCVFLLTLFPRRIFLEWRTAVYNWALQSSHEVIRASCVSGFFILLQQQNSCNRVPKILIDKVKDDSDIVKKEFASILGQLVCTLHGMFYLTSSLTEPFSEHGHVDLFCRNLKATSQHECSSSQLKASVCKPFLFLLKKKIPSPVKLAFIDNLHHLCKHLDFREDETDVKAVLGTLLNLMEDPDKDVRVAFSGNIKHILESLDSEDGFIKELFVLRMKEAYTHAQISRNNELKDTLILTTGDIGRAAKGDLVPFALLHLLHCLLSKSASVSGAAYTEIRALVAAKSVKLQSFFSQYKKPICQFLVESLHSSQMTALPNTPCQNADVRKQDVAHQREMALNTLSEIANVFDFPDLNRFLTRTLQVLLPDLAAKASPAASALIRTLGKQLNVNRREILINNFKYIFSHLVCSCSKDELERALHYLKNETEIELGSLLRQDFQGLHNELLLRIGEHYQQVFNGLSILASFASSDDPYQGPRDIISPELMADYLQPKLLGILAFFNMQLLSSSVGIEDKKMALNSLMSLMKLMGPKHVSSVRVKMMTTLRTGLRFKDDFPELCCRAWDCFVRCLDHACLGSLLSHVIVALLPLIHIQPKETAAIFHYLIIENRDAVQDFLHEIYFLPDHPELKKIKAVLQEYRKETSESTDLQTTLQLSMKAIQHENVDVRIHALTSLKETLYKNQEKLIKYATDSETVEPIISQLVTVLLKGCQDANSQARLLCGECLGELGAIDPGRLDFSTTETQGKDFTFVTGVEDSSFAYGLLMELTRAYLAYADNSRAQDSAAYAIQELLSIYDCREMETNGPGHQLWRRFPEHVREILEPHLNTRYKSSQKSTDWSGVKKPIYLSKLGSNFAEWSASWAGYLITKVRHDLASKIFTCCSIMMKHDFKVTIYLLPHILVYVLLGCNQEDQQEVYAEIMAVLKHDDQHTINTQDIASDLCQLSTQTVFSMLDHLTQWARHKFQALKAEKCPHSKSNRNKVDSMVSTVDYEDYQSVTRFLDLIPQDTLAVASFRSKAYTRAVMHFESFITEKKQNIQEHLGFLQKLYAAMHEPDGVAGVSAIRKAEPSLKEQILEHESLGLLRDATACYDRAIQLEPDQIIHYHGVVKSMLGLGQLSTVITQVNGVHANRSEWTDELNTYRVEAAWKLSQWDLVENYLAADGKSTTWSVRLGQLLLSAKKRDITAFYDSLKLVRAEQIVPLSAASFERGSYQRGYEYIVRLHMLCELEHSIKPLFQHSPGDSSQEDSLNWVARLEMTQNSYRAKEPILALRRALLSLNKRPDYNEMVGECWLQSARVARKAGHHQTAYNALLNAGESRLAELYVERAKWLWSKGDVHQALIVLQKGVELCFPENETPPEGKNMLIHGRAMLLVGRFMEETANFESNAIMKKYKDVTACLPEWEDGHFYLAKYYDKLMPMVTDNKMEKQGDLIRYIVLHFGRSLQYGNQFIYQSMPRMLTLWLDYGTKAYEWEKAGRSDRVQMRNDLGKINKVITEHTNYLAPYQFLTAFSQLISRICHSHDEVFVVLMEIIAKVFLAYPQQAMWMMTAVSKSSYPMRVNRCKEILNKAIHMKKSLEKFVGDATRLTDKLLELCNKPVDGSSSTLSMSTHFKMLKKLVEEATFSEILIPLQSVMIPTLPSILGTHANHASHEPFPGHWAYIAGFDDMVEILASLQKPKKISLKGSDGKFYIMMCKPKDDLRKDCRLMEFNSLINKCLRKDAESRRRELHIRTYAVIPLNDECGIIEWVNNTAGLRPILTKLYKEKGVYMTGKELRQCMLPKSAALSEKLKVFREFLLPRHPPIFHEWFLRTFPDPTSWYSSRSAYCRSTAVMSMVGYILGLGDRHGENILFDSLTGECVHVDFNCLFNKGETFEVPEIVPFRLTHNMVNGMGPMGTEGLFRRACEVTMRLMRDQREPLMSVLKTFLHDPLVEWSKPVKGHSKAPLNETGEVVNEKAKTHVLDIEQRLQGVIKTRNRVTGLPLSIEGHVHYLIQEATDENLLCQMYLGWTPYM
Experimental: Compounds were screened for their ability to inhibit ATR kinase using a radioactive-phosphate incorporation assay. Assays were carried out in a mixture of 50 mM Tris/HCl (pH 7.5), 10 mM MgCl2 and 1 mM DTT. Final substrate concentrations were 10 μM [γ-33P]ATP (3mCi 33P ATP/mmol ATP, Perkin Elmer) and 800 μM target peptide (ASELPASQPQPFSAKKK).
Assays were carried out at 25° C. in the presence of 5 nM full-length ATR. An assay stock buffer solution was prepared containing all of the reagents listed above, with the exception of ATP and the test compound of interest. 13.5 μL of the stock solution was placed in a 96 well plate followed by addition of 2 μL of DMSO stock containing serial dilutions of the test compound (typically starting from a final concentration of 15 μM with 3-fold serial dilutions) in duplicate (final DMSO concentration 7%). The plate was pre-incubated for 10 minutes at 25° C. and the reaction initiated by addition of 15 μL [γ-33P]ATP (final concentration 10 μM).
The reaction was stopped after […] by the addition of 30 μL 0.1M phosphoric acid containing 2 mM ATP. A multiscreen phosphocellulose filter 96-well plate (Millipore, Cat no. MAPHN0B50) was pretreated with 100 μL 0.2M phosphoric acid prior to the addition of 45 μL of the stopped assay mixture. The plate was washed with 5×200 μL 0.2M phosphoric acid. After drying, 100 μL Optiphase ‘SuperMix’ liquid scintillation cocktail (Perkin Elmer) was added to the well prior to scintillation counting (1450 Microbeta Liquid Scintillation Counter, Wallac).
After removing mean background values for all of the data points, Ki(app) data were calculated from non-linear regression analysis of the initial rate data using the Prism software package (GraphPad Prism version 3.0cx for Macintosh, GraphPad Software, San Diego Calif., USA).

| Compound | Ki [2] | also measured |
| --- | --- | --- |
| Cc1ccsc1-c1nnc(-c2nc(-c3ccc(S(=O)(=O)C4CCNCC4)cc3)cnc2N)o1 [Compound A, reference compound] | – | clearance [1]: 2.06 L/h/kg; Vd [1]: 12.5 L/kg |
| Nc1ncc(-c2ccc(S(=O)(=O)C3CCCNC3)cc2)nc1-c1cc(-c2ccccc2)no1 (stereo not shown) [Compound I-1, 3-(3-phenylisoxazol-5-yl)-5-(4-(piperidin-3-ylsulfonyl)phenyl)pyrazin-2-amine] | ≤ 5 nM | clearance [1]: 0.054 L/h/kg; Vd [1]: 0.9 L/kg |
| Cc1ccsc1-c1cc(-c2nc(-c3ccc(S(=O)(=O)C4CCCNC4)cc3)cnc2N)on1 (stereo not shown) [Compound I-2, 3-(3-(3-methylthiophen-2-yl)isoxazol-5-yl)-5-(4-(piperidin-3-ylsulfonyl)phenyl)pyrazin-2-amine] | ≤ 5 nM | – |
| Nc1ncc(-c2ccc(S(=O)(=O)C3CCCNC3)cc2)nc1-c1cc(-c2cccs2)no1 (stereo not shown) [Compound I-3, 5-(4-(piperidin-3-ylsulfonyl)phenyl)-3-(3-(thiophen-2-yl)isoxazol-5-yl)pyrazin-2-amine] | ≤ 5 nM | clearance [1]: 0.198 L/h/kg; Vd [1]: 1 L/kg |
| Nc1ncc(-c2ccc(S(=O)(=O)C3CCCNC3)cc2)nc1-c1cc(-c2ccc(O)cc2)no1 (stereo not shown) [Compound I-4, 4-(5-(3-amino-6-(4-(piperidin-3-ylsulfonyl)phenyl)pyrazin-2-yl)isoxazol-3-yl)phenol] | ≤ 5 nM | – |
| CNCc1ccc(-c2cc(-c3nc(-c4ccc(S(=O)(=O)C5CCCNC5)cc4)cnc3N)on2)cc1 (stereo not shown) [Compound I-5, 3-(3-(4-((methylamino)methyl)phenyl)isoxazol-5-yl)-5-(4-(piperidin-3-ylsulfonyl)phenyl)pyrazin-2-amine] | ≤ 5 nM | – |
| Nc1ncc(-c2ccc(S(=O)(=O)C3CCCNC3)cc2)nc1-c1cc(-c2ccc(CNC3CCOCC3)cc2)no1 (stereo not shown) [Compound I-6, 5-(4-(piperidin-3-ylsulfonyl)phenyl)-3-(3-(4-(((tetrahydro-2H-pyran-4-yl)amino)methyl)phenyl)isoxazol-5-yl)pyrazin-2-amine] | ≤ 5 nM | – |
| Nc1ncc(-c2ccc(S(=O)(=O)[C@@H]3CCCNC3)cc2)nc1-c1cc(-c2ccc([C@@H]3COCCN3)cc2)no1 [Compound I-7, 3-(3-(4-((R)-morpholin-3-yl)phenyl)isoxazol-5-yl)-5-(4-((R)-piperidin-3-ylsulfonyl)phenyl)pyrazin-2-amine] | ≤ 5 nM | – |
| Nc1ncc(-c2ccc(S(=O)(=O)C3CCCNC3)cc2)nc1-c1cc(-c2ccsc2)no1 (stereo not shown) [Compound I-8, 5-(4-(piperidin-3-ylsulfonyl)phenyl)-3-(3-(thiophen-3-yl)isoxazol-5-yl)pyrazin-2-amine] | ≤ 5 nM | – |
| Nc1ncc(-c2ccc(S(=O)(=O)C3CCCNC3)cc2)nc1-c1cc(-c2nccs2)no1 (stereo not shown) [Compound I-9, 5-(4-(piperidin-3-ylsulfonyl)phenyl)-3-(3-(thiazol-2-yl)isoxazol-5-yl)pyrazin-2-amine] | ≤ 5 nM | – |
| Cc1ccsc1-c1nnc(-c2nc(-c3ccc(S(=O)(=O)C4CCCNC4)cc3)cnc2N)o1 (stereo not shown) [Compound I-10, 3-(5-(3-methylthiophen-2-yl)-1,3,4-oxadiazol-2-yl)-5-(4-(piperidin-3-ylsulfonyl)phenyl)pyrazin-2-amine] | ≤ 5 nM | PK properties (clearance and volume of distribution) compared with similar compounds ([1]; compared to a similar 4-piperidine compound (Compound A)): much lower clearance and volume of distribution; clearance [1]: 0.558 L/h/kg; Vd [1]: 3 L/kg |
| Nc1ncc(-c2ccc(S(=O)(=O)C3CCCNC3)cc2)nc1-c1nnc(-c2sccc2F)o1 (stereo not shown) [Compound I-11, 3-(5-(3-fluorothiophen-2-yl)-1,3,4-oxadiazol-2-yl)-5-(4-(piperidin-3-ylsulfonyl)phenyl)pyrazin-2-amine] | ≤ 5 nM | – |
| Nc1ncc(-c2ccc(S(=O)(=O)C3CCCNC3)cc2)nc1-c1nnc(-c2cccs2)o1 (stereo not shown) [Compound I-12, 5-(4-(piperidin-3-ylsulfonyl)phenyl)-3-(5-(thiophen-2-yl)-1,3,4-oxadiazol-2-yl)pyrazin-2-amine] | ≤ 5 nM | – |
| COc1ccsc1-c1nnc(-c2nc(-c3ccc(S(=O)(=O)C4CCCNC4)cc3)cnc2N)o1 (stereo not shown) [Compound I-13, 3-(5-(3-methoxythiophen-2-yl)-1,3,4-oxadiazol-2-yl)-5-(4-(piperidin-3-ylsulfonyl)phenyl)pyrazin-2-amine] | ≤ 5 nM | – |
| COc1ccccc1-c1nnc(-c2nc(-c3ccc(S(=O)(=O)C4CCCNC4)cc3)cnc2N)o1 (stereo not shown) [Compound I-14, 3-(5-(2-methoxyphenyl)-1,3,4-oxadiazol-2-yl)-5-(4-(piperidin-3-ylsulfonyl)phenyl)pyrazin-2-amine] | ≤ 5 nM | clearance [1]: 0.96 L/h/kg; Vd [1]: 2 L/kg |
| Cc1ccsc1-c1nnc(-c2nc(-c3ccc(S(=O)(=O)[C@H]4CCCNC4)cc3)cnc2N)o1 [Compound I-15, (S)-3-(5-(3-methylthiophen-2-yl)-1,3,4-oxadiazol-2-yl)-5-(4-(piperidin-3-ylsulfonyl)phenyl)pyrazin-2-amine] | ≤ 5 nM | – |
| Cc1ccsc1-c1nnc(-c2nc(-c3ccc(S(=O)(=O)[C@@H]4CCCNC4)cc3)cnc2N)o1 [Compound I-16, (R)-3-(5-(3-methylthiophen-2-yl)-1,3,4-oxadiazol-2-yl)-5-(4-(piperidin-3-ylsulfonyl)phenyl)pyrazin-2-amine] | ≤ 5 nM | – |
| Nc1ncc(-c2ccc(S(=O)(=O)C3CCCNC3)cc2)nc1-c1nnc(-c2ccc(C3COCCN3)cc2)o1 (stereo not shown) [Compound I-17, 3-(5-(4-(morpholin-3-yl)phenyl)-1,3,4-oxadiazol-2-yl)-5-(4-(piperidin-3-ylsulfonyl)phenyl)pyrazin-2-amine] | ≤ 5 nM | – |
| Nc1ncc(-c2ccc(S(=O)(=O)C3CCCNC3)cc2)nc1-c1nnc(-c2ccccc2)s1 (stereo not shown) [Compound I-18, 3-(5-phenyl-1,3,4-thiadiazol-2-yl)-5-(4-(piperidin-3-ylsulfonyl)phenyl)pyrazin-2-amine] | ≤ 5 nM | – |
| Nc1ncc(-c2ccc(S(=O)(=O)C3CCCNC3)cc2)nc1-c1nnc(-c2ccccc2)o1 (stereo not shown) [Compound I-19] | ≤ 5 nM | – |
| Nc1ncc(-c2ccc(S(=O)(=O)C3CCCNC3)cc2)nc1-c1cc(-c2ccc(OCCO)cc2)no1 (stereo not shown) [Compound I-20] | 5 to 10 nM | – |
| Nc1ncc(-c2ccc(S(=O)(=O)C3CCCNC3)cc2)nc1-c1cc(-c2ccc(CO)cc2)no1 (stereo not shown) [Compound I-21] | 5 to 10 nM | – |
| Nc1ncc(-c2ccc(S(=O)(=O)C3CCCNC3)cc2)nc1-c1cc(-c2ccccc2F)no1 (stereo not shown) [Compound I-22] | 10 to 25 nM | – |
| COc1ccccc1-c1cc(-c2nc(-c3ccc(S(=O)(=O)C4CCCNC4)cc3)cnc2N)on1 (stereo not shown) [Compound I-23] | 5 to 10 nM | – |
| Cc1ccccc1-c1cc(-c2nc(-c3ccc(S(=O)(=O)C4CCCNC4)cc3)cnc2N)on1 (stereo not shown) [Compound I-24] | 10 to 25 nM | – |
| Nc1ncc(-c2ccc(S(=O)(=O)C3CCCNC3)cc2)nc1-c1cc(-c2ccccc2Cl)no1 (stereo not shown) [Compound I-25] | 10 to 25 nM | – |
| Nc1ncc(-c2ccc(S(=O)(=O)C3CCCNC3)cc2)nc1-c1cc(-c2ccccc2O)no1 (stereo not shown) [Compound I-26] | ≤ 5 nM | – |
